Here are results for 12 compounds from patent US20060229358A1, “Pharmaceutical composition containing flavonoids” (Taipei Medical University, priority 2005, published 2006).

SMILES strings stand for the structures.

As a reminder, the IC50 is the concentration that inhibits the measured activity by half.

The subject of the experiment is PDE1. The experiment is described as follows: Inhibition of cyclic nucleotide PDE activity (Assay I), PDE1. Format: biochemical, guinea pig. The note with it: mean ± S.E.M. (n); read-out: IC50 on phosphodiesterase isozyme 1. Here is the method: Under a protocol approved by the Animal Care and Use Committee of Taipei Medical University, five male guinea pigs (Hartley), weighing 500-600 g, were sacrificed. The lungs (15 g) or hearts (4 g) taken therefrom were chopped into small pieces and homogenized with a glass/teflon homogenizer (Glas-Col, Terre Haute, Ind., USA) in 10 volumes of cold medium (pH 6.5) containing 20 mM Bis-Tris, 2 mM benzamidine, 2 mM EDTA, 50 mM sodium chloride, 0.1 mM phenylmethanesulfonyl fluoride (PMSF), and 1 mM dithiothreitol. At 4° C., the homogenate was centrifuged at 170 g for 15 min, and the supernatant thereof was then re-centrifuged at 40,000 g for 30 min. The final supernatant fraction was filtered through the 0.22 μm filter and applied to a Q-sepharose fast flow column (2.2×28 cm), which is pre-washed and pre-equilibrated in homogenization buffer. The column was washed with two bed volumes of homogenate buffer to remove unbound material, where the resin beads therein will bind with proteins, such as PDE proteins. Proteins bound to the Q-sepharose beads were eluted with various concentrations (0.23, 0.34, 0.44, 0.69, and 1.00 M) of NaCl dissolved in homogenate buffer (for each concentration, 40-50 mL elution buffer were applied) at a flow rate of 30 ml/h. Fractions (3 ml each) were collected, and ethylene glycol (EG) was added thereto until a final concentration of 30% (v/v). And then the samples were frozen at −70° C. Under these conditions, the enzyme activity was stable for at least 3 months.
In order to eliminate possible contamination of PDE5 by PDE1, the above-collected fractions with enzyme activity was further purified on a calmodulin-agarose column. The column (1.6 cm×4 cm) was pre-equilibrated by a buffer A, which contains 20 mM Bis-tris, 1 mM dithiothreitol, 2 mM benzamidine, 50 mM NaCl, 3 mMMgCl2, 0.1 mM CaCl2, and 0.1 mM PMSF, pH 6.5. The sample (the mixture of PDE5 and PDE1), being purified by the above-mentioned column, with the CaCl2 concentration thereof adjusted to at least 2 mM previously, was loaded and allowed to be absorbed on the gel for 30 min. Then, the PDE isozymes were eluted by stepwise elution using 20 ml of buffer A with 1 M NaCl followed by 20 ml of buffer A with 1 M NaCl and with 1 mM EGTA. PDE5 was collected first followed by PDE1.
The activities of PDE1-5 in the homogenate were measured with a two-step procedure according to the method of Thompson and Appleman, using cAMP with [^3H]-cAMP or cGMP with [^3 H]-cGMP as substrates. The PDE enzyme prepared (25 μl) with 10 μl inhibitor or the solvents therefor was incubated for 30 min at 37° C. in a total assay buffer, where the final volume of the assay is amounted to 100 μl. In accordance with the features of the PDE isozymes, the assay buffer contains 50 mM Tris/HCl (pH 7.4), 3 mM MgCl2, 1 mM dithiothreitol, and 0.05% BSA, and optionally contains 1 uM cAMP with 0.2 μCi [^3H]-cAMP as a substrate alone or in the presence of 0.1 unit calmodulin with 10 μM CaCl2, or 5 μM cGMP, and 1 μM cGMP with 0.2 μCi [^3H]-cGMP as another substrate alone or in the presence of 0.1 unit calmodulin with 10 μM CaCl2. In assay of enzyme inhibition, the assay mixture contained with the inhibitors at various concentrations of flavonoids in the Table 1 or the selective PDE1-5 inhibitors as reference drugs. For example, the selective PDE1-5 inhibitors are vinpocetin [30], EHNA [31], milrinone, Ro 20-1724 [33], and zaprinast, respectively.
The PDE enzyme and the inhibitors (or their solvent) therefor were mixed and incubated on ice for 30 min previously, and then mixed with the assay buffer. The assay was initiated by transferring the mixture to a water bath at 37° C. Following the other 30 min incubation, the reaction was stopped by transferring the reaction vessel to a bath of boiling water for 3 min. After cooling on ice, 20 μl of the 1 mg/ml of Crotalus atrox venom was added to the reaction mixture, and the mixture was incubated at 37° C. for 10 min. […]
For `O=c1cc(-c2ccc(O)c(O)c2)oc2cc(O[C@@H]3O[C@H](CO)[C@@H](O)[C@H](O)[C@H]3O)cc(O)c12` [Luteolin-7-glucoside], the half-maximal inhibitory concentration (IC50) is > 100 µM.

For `O=c1c(-c2ccc(O)cc2)coc2cc(O)cc(O)c12` [Genistein], the IC50 was determined as 16.8 ± 2.3 µM.

In the case of `O=c1c(O)c(-c2cc(O)c(O)c(O)c2)oc2cc(O)cc(O)c12` [Myricetin], the half-maximal inhibitory concentration (IC50) came out at 24.9 ± 3.6 µM.

For `O=c1cc(-c2ccc(O)cc2)oc2cc(O)cc(O)c12` [Apigenin], the IC50 is 25.4 ± 3.7 µM.

For `O=c1c(O)c(-c2ccc(O)c(O)c2)oc2cc(O)cc(O)c12` [Quercetin], the IC50 was 27.8 ± 5.7 µM.

In the case of `COc1cc(O)c2c(=O)c(-c3ccc(O)cc3)coc2c1` [Prunetin], the 50% inhibitory concentration (IC50) is > 100 µM.

On to `COc1ccc(C2CC(=O)c3c(O)cc(O)cc3O2)cc1O` (stereo not drawn) [Hesperetin], for which the IC50 was > 100 µM.

In the case of `O=c1cc(-c2ccc(O)c(O)c2)oc2cc(O)cc(O)c12` [Luteolin], the IC50 was 21.5 ± 2.9 µM.

On to `O=C1CC(c2ccc(O)c(O)c2)Oc2cc(O)cc(O)c21` (stereo not drawn) [Eriodictyol], for which the IC50 was > 100 µM.

With `O=c1c(-c2ccc(O)cc2)coc2cc(O)ccc12` [Daidzein], the concentration for half-maximal inhibition (IC50) was > 100 µM.

In the case of `COc1ccc(-c2coc3cc(O)cc(O)c3c2=O)cc1` [Biochanin A], the half-inhibitory concentration (IC50) is 29.1 ± 0.3 µM.

Take `O=c1cc(-c2ccccc2)oc2cc(O)cc(O)c12` [Chrysin]: the IC50 was > 100 µM.
